{"source": "patent US6936628B2", "about": "“Oral administration of epothilones” (Bristol-Myers Squibb Company, priority 2002, dated 2005)", "key": {"[1]": {"target": "T1, HERG (IKr) potassium channel (Homo sapiens, UniProt Q12809)", "T1 construct": "expressed in transfected cells; host or cells: HEK293", "T1 sequence (Q12809 whole entry)": "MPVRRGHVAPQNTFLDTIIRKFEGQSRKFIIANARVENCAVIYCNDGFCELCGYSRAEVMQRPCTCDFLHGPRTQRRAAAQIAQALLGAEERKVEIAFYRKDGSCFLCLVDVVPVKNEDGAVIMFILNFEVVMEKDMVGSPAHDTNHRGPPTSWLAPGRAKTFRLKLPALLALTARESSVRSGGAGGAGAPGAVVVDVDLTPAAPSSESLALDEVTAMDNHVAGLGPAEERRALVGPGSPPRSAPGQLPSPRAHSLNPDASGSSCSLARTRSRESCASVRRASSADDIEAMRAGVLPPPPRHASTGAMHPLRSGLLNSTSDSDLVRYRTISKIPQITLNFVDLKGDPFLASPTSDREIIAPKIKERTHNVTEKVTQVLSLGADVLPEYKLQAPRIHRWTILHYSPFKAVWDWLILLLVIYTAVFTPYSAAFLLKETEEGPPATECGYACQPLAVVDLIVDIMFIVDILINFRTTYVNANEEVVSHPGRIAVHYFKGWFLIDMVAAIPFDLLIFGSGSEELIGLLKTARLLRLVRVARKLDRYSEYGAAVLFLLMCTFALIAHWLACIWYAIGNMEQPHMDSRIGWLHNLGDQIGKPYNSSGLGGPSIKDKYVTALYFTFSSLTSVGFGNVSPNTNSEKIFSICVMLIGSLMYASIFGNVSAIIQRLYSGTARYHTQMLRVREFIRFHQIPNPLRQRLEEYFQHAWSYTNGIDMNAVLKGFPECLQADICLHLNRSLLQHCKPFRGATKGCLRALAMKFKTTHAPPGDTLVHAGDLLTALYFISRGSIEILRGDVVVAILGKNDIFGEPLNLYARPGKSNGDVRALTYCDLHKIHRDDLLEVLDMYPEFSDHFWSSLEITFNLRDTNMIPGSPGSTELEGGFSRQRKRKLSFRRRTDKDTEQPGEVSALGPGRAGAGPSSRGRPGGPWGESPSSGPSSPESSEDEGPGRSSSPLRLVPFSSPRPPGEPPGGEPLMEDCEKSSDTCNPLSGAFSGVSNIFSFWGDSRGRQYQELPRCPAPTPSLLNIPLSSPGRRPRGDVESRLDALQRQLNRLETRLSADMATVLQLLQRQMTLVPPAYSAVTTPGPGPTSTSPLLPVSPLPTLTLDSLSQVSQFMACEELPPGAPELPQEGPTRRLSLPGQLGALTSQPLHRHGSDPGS", "experiment": "HERG (IKr current) assay", "assay_type": "cell-based", "details": "30 μM, HEK293 cells transfected with HERG", "procedure": "Human embryonic kidney (HEK293) cells stably transfected with the human ether-a-go-go related gene (HERG) cDNA were utilized in the HERG assay. Rabbit Purkinje fibres were used for the Purkinje-fibre action potential assay^7.\nIn a non-GLP study^7, Compound A was evaluated for effects on potassium channel current at concentrations of 10 and 30 μM. The human ether-a-go-go related gene (HERG) encodes the rapidly activating delayed-rectifier potassium channel (IKr) in heart. […] Based on the findings, it is unlikely that Compound A would cause IKr-mediated increases in the QT interval at anticipated therapeutic plasma concentrations."}, "[2]": {"target": "CYP3A4 (Homo sapiens, UniProt P08684)", "sequence (P08684 whole entry)": "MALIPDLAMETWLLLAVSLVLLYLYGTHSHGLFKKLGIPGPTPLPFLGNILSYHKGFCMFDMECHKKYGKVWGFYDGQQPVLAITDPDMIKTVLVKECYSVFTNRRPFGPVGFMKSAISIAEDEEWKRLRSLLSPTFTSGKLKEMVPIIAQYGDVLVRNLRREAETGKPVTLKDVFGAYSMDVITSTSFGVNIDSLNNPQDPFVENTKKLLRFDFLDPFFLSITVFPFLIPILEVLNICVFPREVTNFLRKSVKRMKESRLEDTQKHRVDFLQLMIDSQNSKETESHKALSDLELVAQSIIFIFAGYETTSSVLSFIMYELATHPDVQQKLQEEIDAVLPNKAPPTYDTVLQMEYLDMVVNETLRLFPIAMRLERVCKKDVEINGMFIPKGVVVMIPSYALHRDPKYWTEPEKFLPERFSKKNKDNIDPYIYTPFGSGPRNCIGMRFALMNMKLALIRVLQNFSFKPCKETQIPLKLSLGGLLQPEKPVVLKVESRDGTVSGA", "experiment": "Inhibition of human CYP enzymes, CYP3A4"}, "[3]": {"experiment": "Microsomal incubation, rat", "details": "rat liver microsomes + NADPH, 20 μM"}, "[4]": {"target": "T2, CYP1A2 (Homo sapiens, UniProt P05177)", "T2 sequence (P05177 1-516)": "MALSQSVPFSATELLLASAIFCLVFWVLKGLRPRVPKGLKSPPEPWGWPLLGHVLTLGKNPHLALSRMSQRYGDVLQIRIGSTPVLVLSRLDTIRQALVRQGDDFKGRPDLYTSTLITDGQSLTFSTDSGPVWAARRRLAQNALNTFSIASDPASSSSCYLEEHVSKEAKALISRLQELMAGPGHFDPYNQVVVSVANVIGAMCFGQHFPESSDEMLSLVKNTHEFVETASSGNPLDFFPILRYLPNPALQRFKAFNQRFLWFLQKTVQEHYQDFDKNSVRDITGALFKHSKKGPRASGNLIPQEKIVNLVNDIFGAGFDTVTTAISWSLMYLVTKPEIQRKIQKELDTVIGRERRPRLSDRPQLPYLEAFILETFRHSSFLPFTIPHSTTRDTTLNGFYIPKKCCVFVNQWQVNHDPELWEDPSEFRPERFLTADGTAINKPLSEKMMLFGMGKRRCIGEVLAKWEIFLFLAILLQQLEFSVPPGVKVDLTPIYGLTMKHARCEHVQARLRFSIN", "experiment": "Inhibition of human CYP enzymes, CYP1A2"}, "[5]": {"experiment": "Liver S9 incubation, rat", "details": "rat liver S9, 20 μM"}, "[6]": {"test_system": "human ovarian carcinoma xenograft A2780", "experiment": "Antitumor activity by parenteral administration to rats, A2780 xenograft", "assay_type": "in vivo, nude rats", "procedure": "The required number of animals needed to detect a meaningful response were pooled at the start of the experiment and each was given a subcutaneous implant of a tumor fragment (≈50 mg) with a 13-gauge trocar. For treatment of early-stage tumors, the animals were again pooled before distribution to the various treatment and control groups. For treatment of animals with advanced-stage disease, tumors were allowed to grow to the pre-determined size window (tumors outside the range were excluded) and animals were evenly distributed to various treatment and control groups. Treatment of each animal was based on individual body weight. Treated animals were checked daily for treatment related toxicity/mortality. Each group of animals was weighed before the initiation of treatment (Wt1) and then again following the last treatment dose (Wt2). The difference in body weight (Wt2−Wt1) provides a measure of treatment-related toxicity.\nTumor response was determined by measurement of tumors with a caliper twice a week, until the tumors reach a predetermined “target” size of 1 gm. Tumor weights (mg) were estimated from the formula: Tumor weight=(length×width^2)÷2\nAntitumor activity was evaluated at the maximum tolerated dose (MTD) which is defined as the dose level immediately […] which excessive toxicity (i.e. more than one death) occurred. The MTD was frequently equivalent to OD. When death occurred, the day of death was recorded. Treated mice dying prior to having their tumors reach target size were considered to have died from drug toxicity. No control mice died bearing tumors less than target size. Treatment groups with more than one death caused by drug toxicity were considered to have had excessively toxic treatments and their data were not included in the evaluation of a compound's antitumor efficacy.\nTumor response end-point was expressed in terms of tumor growth delay (T−C value), defined as the difference in time (days) required for the treated tumors (T) to reach a predetermined target size compared to those of the control group (C).\nTo estimate tumor cell kill, the tumor volume doubling time was first calculated with the formula: TVDT=Median time (days) for control tumors to reach target size−Median time (days) for control tumors to reach half the target size and Log cell kill=T−C÷(3.32×TVDT)\nCompound A was evaluated versus the human ovarian carcinoma xenograft A2780 grown in nude rats. […] In comparison, Compound B produced 3.3 LCK at its MTD (2.4 mg/kg/inj, IV, every 8 days×2)."}, "[7]": {"experiment": "Stability in dog EDTA plasma and whole blood", "assay_type": "in vitro ADME", "procedure": "Plasma samples from exploratory pharmacokinetic studies were analyzed for Compound A concentrations using an LC/MS/MS assay with a standard curve range of 3.9 to 2000 ng/mL. In pharmacodynamic studies, Compound A concentrations were determined using an LC/MS/MS assay with a standard curve range of 10-40000 nM (5.23-20920 ng/mL) in mouse plasma. For toxicology studies, validated LC/MS/MS assays were used to determine the concentrations of Compound A in rat and dog plasma. Analytical data management for the validated assays was carried out using Watson®. The standard curve range for the validated assay in both matrices was 2 to 500 ng/mL of Compound A. The coefficient of variation for the inter- and intra-assay precision in rat and dog plasma was within 9% and the accuracy was greater than 92%. […] Compound A was stable for at least 4 months at !20EC and through at least 3 freeze-thaw cycles in rat and dog EDTA plasma. In addition, Compound A was stable in fresh rat and dog EDTA whole blood for at least 1 h at 4EC."}, "[8]": {"test_system": "sc Pat-7 human ovarian carcinoma", "experiment": "Minimum effective infusional dose regimen versus sc Pat-7", "assay_type": "in vivo, mice", "details": "constant-rate IV infusion over 10 hr"}}, "data": [{"smiles": "C/C(=C\\c1csc(CN)n1)[C@@H]1C[C@@H]2O[C@]2(C)CCC[C@H](C)[C@H](O)[C@@H](C)C(=O)C(C)(C)[C@@H](O)CC(=O)O1", "note": "(relative stereo) [Compound A, [1S-[1R*,3R*(E),7R*,10S*,11R*,12R*,16S*]]-3-[2-[2-(aminomethyl)-4-thiazolyl]-1-methylethenyl]-7,11-dihydroxy-8,8,10,12,16-pentamethyl-4,17-dioxabicyclo[14.1.0]heptadecane-5,9-dione]", "values": [{"measurement": "maximum inhibition of IKr current", "setting": "[1]", "value": 13.5, "unit": "%"}, {"measurement": "IC50", "setting": "[2]", "value": 7.1, "unit": "µM"}, {"measurement": "rate of oxidative metabolism", "setting": "[3]", "value": 0.05, "unit": "mmol/min/mg protein"}, {"measurement": "IC50", "setting": "[4]", "value": "> 70", "unit": "µM"}, {"measurement": "rate of oxidative metabolism", "setting": "[5]", "value": 0.04}, {"measurement": "LCK", "setting": "[6]; A2780 in nude rats, IV, every 8 days×2, at MTD", "value": 0.7}, {"measurement": "MTD", "setting": "[6]; nude rats bearing A2780, IV, every 8 days×2", "value": 3, "unit": "mg/kg/inj"}, {"measurement": "stable through freeze-thaw cycles", "setting": "[7]; dog EDTA plasma", "value": "at least 3 freeze-thaw cycles"}, {"measurement": "stable in plasma prior to processing", "setting": "[7]; dog EDTA plasma, 4EC", "value": "at least 4 h"}, {"measurement": "stable in frozen plasma", "setting": "[7]; dog EDTA plasma, !20EC", "value": "at least 4 months"}, {"measurement": "stable in fresh whole blood", "setting": "[7]; dog EDTA whole blood, 4EC", "value": "at least 1 h"}, {"measurement": "stable in an autosampler after processing", "setting": "[7]; dog plasma samples, 4EC", "value": "at least 5 days"}, {"measurement": "Tumor growth delay equivalent to LCK", "setting": "[8]; 2 mg/kg", "value": 0.1}, {"measurement": "Tumor growth delay equivalent to LCK", "setting": "[8]; 4 mg/kg", "value": 0.7}, {"measurement": "Tumor growth delay equivalent to LCK", "setting": "[8]; 8 mg/kg", "value": 1.1}, {"measurement": "Tumor growth delay equivalent to LCK", "setting": "[8]; 16 mg/kg", "value": 1.7}]}]}
